Source: US20180009764A1, “METHOD FOR TREATING MACROPHAGE MIGRATION INHIBITORY FACTOR (MIF)-IMPLICATED DISEASES AND CONDITIONS WITH IODO PYRIMIDINE DERIVATIVES” (UNIVERSITY OF LOUISVILLE RESEARCH FOUNDATION, INC., priority 2009, published 2018)

Molecular target: T1, MIF (Mus musculus, UniProt P34884)
T1 construct: from tissue; host or cells: mouse liver (A7); liver, lung and brain of C57BL6 mice (A20)
Assay: MIF liver lysates enzymatic activity ex vivo (L-dopachrome tautomerase)
Conditions: mice; IP 1 mg in corn oil every day for 3 days; livers 6 hours after last injection; FIG. 1
Protocol: This experiment, using an ex-vivo approach and the tautomeric reaction of L-dopachrom, was designed to ascertain the level of inhibition of MIF following administration of the compounds of this invention via oral, IV, IP or any other route of administration. Mice were used in the example illustrated below, but other animals could be used as well. Groups of 3 mice were administered IP 1 mg of 4-IPP and ACT-002 resuspended in 100 μl of corn oil every day for 3 days. Mice were sacrificed 6 hours after the last injection and livers were harvested. ˜1 gram pieces of liver were lysed in PBS containing 1 mM NaVO4, 2 mM NaF and a protease inhibitor cocktail (Roche Biochemical, Indianapolis, Ind.) using dounce-homogenization on ice. 500 μg of liver lysates were added to a final volume of 700 μl PBS in plastic cuvettes. 4 mM L-3, 4-dihydroxyphenylalanine methyl ester and 8 mM sodium periodate (Sigma-Aldrich) were combined in a 3:2 ratio to form L-dopachrome methyl ester. 300 μL of L-dopachrome methyl ester was then immediately added to the cuvettes; the OD475 nm was measured 2 min and 4 min after addition of the L-dopachrome.

COc1ccc(-c2cc(I)ncn2)c(F)c1 [ACT-MIF-002, 4-Iodo-6-(2-fluoro-4-methoxyphenyl)pyrimidine]
MIF liver enzyme inhibition: significant in vivo inhibition of MIF
